Target: T1, Human Type I Steroid 5α-Reductase (Homo sapiens, UniProt P18405)
T1 construct: Preparation of Type I 5α-Reductase from Human Scalp; from tissue; host or cells: human scalp punch biopsies from hair transplant procedures; 100,000 x g pellet of skin homogenate
T1 sequence (P18405 1-259): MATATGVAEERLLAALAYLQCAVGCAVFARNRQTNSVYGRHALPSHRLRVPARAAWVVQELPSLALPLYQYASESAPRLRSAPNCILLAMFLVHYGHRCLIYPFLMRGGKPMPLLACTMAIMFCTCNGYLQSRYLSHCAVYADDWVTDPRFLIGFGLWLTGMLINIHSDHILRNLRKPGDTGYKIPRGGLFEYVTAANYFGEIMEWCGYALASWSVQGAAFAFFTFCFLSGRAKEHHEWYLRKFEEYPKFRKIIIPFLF
Assay: Human Type I steroid 5α-reductase homogenate assay (conversion of [3H]-testosterone to [3H]-5α-dihydrotestosterone)
Assay type: biochemical
Conditions: 0.3 μM concentration; compared to control reaction mixtures; enzyme from human scalp, pH 7.5, 25°, 180 min
Description: Methodology of Human Type I Steroid 5α-Reductase Assays
Approximately 60-75 punches from one surgical procedure were used to generate an enzyme preparation. The subcutaneous tissue was cut away and discarded. The skin was frozen with liquid nitrogen and pulverized to powder. […] The homogenization procedure consisted of four 15 second pulses. Connective tissue was cleared from the probe with forceps between pulses. […] The pellet was resuspended by homogenization with a Dounce homogenizer using the same buffer solution. […] Aliquots of the enzyme preparation were stored at -80° until use.
The reaction was initiated by the addition of 0.5 mg of Type I 5α-reductase. The reaction mixture was incubated at 25° for 180 min, and terminated by the addition of 1 mL ice-cold stopping solution. […] The samples were prepared for high performance liquid chromatography by solid phase extraction. […] The reaction mixtures were then applied to the columns. The columns were subsequently washed with 5 mL of acetone:water (1:4), followed by 0.3 mL of methanol. The samples were then eluted with 3 mL of methanol and collected in 20 mL scintillation vials. Three mL of water was then added to each scintillation vial. […] The column temperature was maintained at 35° and the flow rate was 1.5 mL/min.

## CN1C(=O)CC[C@]2(C)c3ccc(-c4ccc(-c5ccc(NC(=O)C(C)(C)C)s5)cc4)cc3CC[C@@H]12 [Example 222, (+)-(4aR)-(10bR)-4-methyl-8-(4-[(2-t-butylcarbonylamino]-5-thienyl]phenyl)-10b-methyl-1,2,3,4,4a,5,6,10b-octahydrobenzo[f]quinolin-3-one]
  percent inhibition of Type I 5AR: 86%

## (+)-(4aR)-(10bR)-4-methyl-8-(3-[1-benzyl-4-piperidinylcarboxamido]phenyl)-10b-methyl-1,2,3,4,4a,5,6,10b-octahydrobenzo[f]quinolin-3-one [Example 209]
  percent inhibition of Type I 5AR: 24%

## (+)-(4aR)-(10bR)-4-methyl-8-(3-t-butylcarboxamidophenyl)-10b-methyl-1,2,3,4,4a,5,6,10b-octahydrobenzo[f]quinolin-3-one [Example 34]
  percent inhibition of Type I 5AR: 13%

## (+)-(4aR)-(10bR)-4-methyl-8-benzyloxycarbonyl-10b-methyl-1,2,3,4,4a,5,6,10b-octahydrobenzo[f]quinolin-3-one [Example 144]
  percent inhibition of Type I 5AR: 90%
